Bridge positions count the residues as written; N and C are the ends. Square brackets hold non-standard residues; d marks the D form. Peptide text beside a SMILES is read from it. Oic = O=C(O)[C@@H]1C[C@@H]2CCCC[C@@H]2N1; Cha = N[C@@H](CC1CCCCC1)C(=O)O; Tle = CC(C)(C)[C@H](N)C(=O)O
How the values were obtained:
[1] = target: rhEphB2/Fc (Homo sapiens, UniProt P29323); assay: SPR binding to immobilized rhEphB2/Fc (Biacore 3000); parameters: Fc; purchased R&D Systems, Inc., Minneapolis, Minn; conditions: SPR; averaged from at least 4 independent experiments; read-out: KD ± SEM, rhEphB2/Fc
Method: (§1) Binding to selected ephrin receptors was measured by surface plasmon resonance on a Biacore3000 instrument. Commercially available ephrin receptors: EphA2, EphB2 and EphB4 (R&D Systems) were immobilized on a CM-5 chip by amine coupling and tested peptides were passed over a chip surface as analytes.
(§2) Binding studies. Binding studies were performed by surface plasmon resonance (SPR) on a BIAcore 3000 system (BiaCore AB, Piscataway, N.J.). BIAcore CM5 sensor chips were utilized in all experiments. Binding studies were performed in HBS-EP running buffer (pH=7.4) containing 10 mM HEPES, 150 mM NaCl, 3 mM EDTA, and 0.005% polysorbate 20. Commercially available ephrin receptors: EphA2, EphB2 and EphB4 (R&D Systems, Inc., Minneapolis, Minn.) were immobilized on a CM5 sensor chip using the amine coupling method. The chip was activated by mixing 400 mM N-ethyl-N-(3-dimethylaminopropyl)-carbodiimide hydrochloride and 100 mM N-hydroxysuccinimide. Residual reactive groups on the chip surface were blocked using 1.0 M ethanolamine/HCl (pH=8.5). The flow cell-1 chip, which served as a control, lacked immobilized protein but was treated with N-ethyl-N-(3-dimethylaminopropyl)-carbodiimide hydrochloride, N hydroxysuccinimide, and ethanolamine/HCl. Binding signals were corrected for nonspecific binding by subtracting the flow cell-1 signal (blank surface). To regenerate chip surfaces, bound ligands were removed with 10 mM HCl. Data were analyzed with BIAevaluation 4.1 software (Biacore, Piscataway, N.J.).

[2] = target: rhEphA2 (Homo sapiens, UniProt P29317); assay: SPR binding to immobilized rhEphA2 (Biacore 3000); parameters: purchased R&D Systems, Inc., Minneapolis, Minn; conditions: SPR; averaged from at least 4 independent experiments; read-out: KD ± SEM, rhEphA2
Method: as §1, §2

[3] = system: Lewis lung carcinoma (LLC); assay: Artificial metastasis model: i.v. Lewis lung carcinoma plus local thoracic irradiation, lung tumor nodules counted; type: in vivo, C57BL/6 mice; conditions: Example 1: 500 μg (~10 mg/kg) total i.p. in 4 daily doses 60 min before 4 Gy thoracic irradiation; equimolar controls; nodules day 14
Method: (§3) The AzV-36-Nic conjugate was tested in vivo for its ability to radiosensitize Lewis lung carcinoma (LCC) in an artificial metastasis model. Briefly, C57BL/6 mice (8 weeks old) were intravenously injected with 5×10^5 cells of syngeneic LLC. Various treatments were initiated 4 days later, after cancer engraftment. In general, each animal received intraperitoneally a total of 500 μg (˜10 mg/kg) of peptide in 4 daily doses 60 mins before local thoracic irradiation (4 Gy). Animals were sacrificed on the 14th day of the experiment and lung tumor nodules were counted.
as §3, with “Animal experiments.” for “The AzV-36-Nic conjugate was tested in vivo for its ability to radiosensitize Lewis lung carcinoma (LCC) in an artificial metastasis model.”, “min” for “mins”
Animal experiments. C57BL/6 gnotobiotic mice (8 weeks old) were obtained from the UCLA AALAC accredited Department of Radiation Oncology Facility and intravenously injected with 5×10^5 cells of syngeneic LLC. Various treatments were initiated 4 days later, after cancer engraftment. In general, each animal received intraperitoneally a total of 500 μg (˜25 mg/kg) of peptide (or equimolar amount of nicotinamide) in 4 daily doses 60 min before local thoracic irradiation (0 or 4 Gy, total dose: 4.4=16 Gy) that was delivered using an Atomic Energy of Canada cesium gamma irradiator with a dose rate of approximately 0.6 Gy/min with the rest of the body shielded. Prior to irradiation animals were anesthetized by intraperitoneal injection of ketamine/xylazine mixture. Animals were sacrificed on the 14th day of the experiment and lung tumor nodules were counted. All experiments were approved by the UCLA Animal Care and Use Committee and conformed to local and national guidelines.

[4] = target: T1, rhEphB4 (Homo sapiens, UniProt P54760); assay: SPR binding to immobilized rhEphB4 (Biacore 3000); conditions: SPR; averaged from at least 4 independent experiments; read-out: KD ± SEM, rhEphB4
T1 construct: purchased R&D Systems, Inc., Minneapolis, Minn
T1 sequence (P54760 16-987): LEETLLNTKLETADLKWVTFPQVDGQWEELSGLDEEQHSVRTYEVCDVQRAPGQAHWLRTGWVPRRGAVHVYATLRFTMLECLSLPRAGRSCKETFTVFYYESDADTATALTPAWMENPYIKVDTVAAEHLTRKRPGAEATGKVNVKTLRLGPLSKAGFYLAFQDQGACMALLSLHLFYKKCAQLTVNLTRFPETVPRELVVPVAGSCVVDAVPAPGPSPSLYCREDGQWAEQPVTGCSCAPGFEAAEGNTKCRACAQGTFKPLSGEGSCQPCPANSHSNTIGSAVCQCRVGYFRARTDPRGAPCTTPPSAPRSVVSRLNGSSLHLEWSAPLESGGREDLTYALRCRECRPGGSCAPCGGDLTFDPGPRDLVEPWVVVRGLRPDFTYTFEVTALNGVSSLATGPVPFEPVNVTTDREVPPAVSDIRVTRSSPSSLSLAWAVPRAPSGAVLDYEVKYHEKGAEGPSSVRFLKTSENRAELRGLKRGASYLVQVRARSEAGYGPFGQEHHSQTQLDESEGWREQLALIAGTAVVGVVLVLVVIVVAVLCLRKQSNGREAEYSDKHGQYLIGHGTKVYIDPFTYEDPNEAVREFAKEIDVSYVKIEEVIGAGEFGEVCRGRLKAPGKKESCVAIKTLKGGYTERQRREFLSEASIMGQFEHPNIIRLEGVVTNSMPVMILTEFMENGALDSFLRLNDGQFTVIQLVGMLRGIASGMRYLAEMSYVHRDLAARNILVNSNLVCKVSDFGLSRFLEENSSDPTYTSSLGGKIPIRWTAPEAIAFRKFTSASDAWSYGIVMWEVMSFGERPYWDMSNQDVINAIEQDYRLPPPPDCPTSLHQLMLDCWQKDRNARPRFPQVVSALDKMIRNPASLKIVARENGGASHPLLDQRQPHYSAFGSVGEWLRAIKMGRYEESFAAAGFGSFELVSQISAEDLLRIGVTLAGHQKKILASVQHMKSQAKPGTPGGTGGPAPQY
Method: as §1, §2

In the case of `C[C@@H](O)[C@@H]1NC(=O)[C@H](CCCNC(=N)N)NC(=O)[C@H](Cc2c[nH]cn2)NC(=O)[C@@H](CCCNC(=N)N)NC(=O)[C@@H]2C[C@@H]3CCCC[C@@H]3N2C(=O)[C@H](CC2CCCCC2)NC(=O)[C@H](C(C)(C)C)NC(=O)[C@@H](NC(=O)[C@H](CC2CCCCC2)NC(=O)[C@H](CC2CCCCC2)NC(=O)[C@@H](CCCCN)NC(=O)[C@@H](N)Cc2ccc(O)cc2)CSSC[C@@H](C(=O)N[C@H](CCCCN)C(N)=O)NC(=O)[C@H](CC2CCCCC2)NC1=O` [AzV36, Yk-Cha-Cha-Cys-Tle-Cha-Oic-rHRT-Cha-Cys-k-CONH] (H-Y[dK][Cha][Cha]C[Tle][Cha][Oic][dR]HRT[Cha]C[dK]-NH2; disulfide 5-14; N-terminus assumed), the Kd [1] is reported as 164 ± 11 nM, the Kd [2] is reported as 126 ± 11 nM and the “tumor colonies lower / radiation efficacy improved versus radiation alone” value [3] is reported as 1.3 fold. For the same compound, the Kd [4] was 106 ± 15 nM.
